Calls of active or inactive are those of the source. How the calls were made is not given here.
What follows are compounds tested on cell viability, luminescent cytotoxicity assay (assay: cytotoxicity, cell viability loss, SAR follow-up, cytotoxicity control for Gli-SUFU antagonist project, luminescence, set 2 (AID 651859)).
`O=C(Nc1cc(N2CCCCC2)ncn1)c1ccco1` was tested, and the IC50 was > 11.7 µM (inactive).
For `COc1cccc(C(=O)Nc2cc(N3CCCCC3)ncn2)c1`, the IC50 was > 11.7 µM (inactive).
For `CN1CCN(c2cc(NC(=O)c3ccccc3)ncn2)CC1`, the IC50 was > 11.7 µM (inactive).
For `CC(C)CNc1cc(NC(=O)c2ccccc2)ncn1`, the IC50 was > 11.7 µM (inactive).
`CC(C)(C)OC(=O)N1CCN(c2cc(NC(=O)c3ccccc3)ncn2)CC1` was tested, and the IC50 was > 11.7 µM (inactive).
`CCCCN(C)c1cc(NC(=O)c2ccccc2)ncn1` was tested, and the IC50 was > 11.7 µM (inactive).
With `CCC(C)Nc1cc(NC(=O)c2ccccc2)ncn1` (stereo not drawn) the IC50 was > 11.7 µM (inactive).
For `O=C(Nc1cc(N2CCCCC2)ncn1)c1ccc(C(F)(F)F)cc1`, the IC50 was > 11.7 µM (inactive).
With `O=C(Nc1cc(N2CCOCC2)ncn1)c1ccccc1` the IC50 was > 11.7 µM (inactive).
`COc1ccccc1C(=O)Nc1cc(N2CCCCC2)ncn1` was tested, and the IC50 was > 11.7 µM (inactive).
For `Cc1ccc(C(=O)Nc2cc(N3CCCCC3)ncn2)cc1`, the IC50 was > 11.7 µM (inactive).
With `O=C(Nc1cc(N2CCCCC2)ncn1)c1ccsc1` the IC50 was > 11.7 µM (inactive).
For `O=C(Nc1cc(NCC2CCCO2)ncn1)c1ccccc1` (stereo not drawn), the IC50 was > 11.7 µM (inactive).
`N#Cc1ccc(C(=O)Nc2cc(N3CCCCC3)ncn2)cc1` was tested, and the IC50 was > 11.7 µM (inactive).
`O=C(Nc1cc(N2CCCCCC2)ncn1)c1ccccc1` was tested, and the IC50 was > 11.7 µM (inactive).
In the case of `O=C(Nc1cc(N2CCSCC2)ncn1)c1ccccc1`, the IC50 is reported as > 11.7 µM (inactive).
With `O=C(Nc1cc(N2CCCCC2)ncn1)c1ccccc1Cl` the IC50 was > 11.7 µM (inactive).
With `O=C(Nc1cc(N2CCNCC2)ncn1)c1ccccc1` the IC50 was > 11.7 µM (inactive).
`N#Cc1cccc(C(=O)Nc2cc(N3CCCCC3)ncn2)c1` was tested, and the IC50 was > 11.7 µM (inactive).
In the case of `O=C(Nc1cc(N2CCCCC2)ncn1)c1ccccc1C(F)(F)F`, the IC50 is reported as > 11.7 µM (inactive).
In the case of `CCOc1ccc(S(=O)(=O)NCc2ccncc2)cc1NC(=O)c1ccccc1`, the IC50 is reported as > 11.7 µM (inactive).
In the case of `O=C(Nc1cc(N2CCCCC2)ncn1)c1cc2ccccc2s1`, the IC50 is reported as > 11.7 µM (inactive).
For `O=C(Nc1cc(N2CCCCC2)ncn1)c1ccccc1`, the IC50 was > 11.7 µM (inactive).
For `CC1CCCCN1c1cc(NC(=O)c2ccccc2)ncn1` (stereo not drawn), the IC50 was > 11.7 µM (inactive).
In the case of `O=C(Nc1cc(N2CCCCC2)ncn1)c1ccc(Cl)cc1`, the IC50 is reported as > 11.7 µM (inactive).
In the case of `O=C(Nc1cc(N2CCCCC2)ncn1)c1cccc2ccccc12`, the IC50 is reported as > 11.7 µM (inactive).
With `CCOc1ccc(-c2nc(CSCC(=O)NC3CC3)c(C)o2)cc1` the IC50 was > 11.7 µM (inactive).
`CCCCNc1cc(NC(=O)c2ccccc2)ncn1` was tested, and the IC50 was > 11.7 µM (inactive).
`CC1CCN(c2cc(NC(=O)c3ccccc3)ncn2)CC1` was tested, and the IC50 was > 11.7 µM (inactive).
With `O=C(Nc1cc(N2CCCCC2)ncn1)c1ccc2ccccc2c1` the IC50 was > 11.7 µM (inactive).
For `O=C(Nc1cc(N2CCCCC2)ncn1)c1cccs1`, the IC50 was > 11.7 µM (inactive).
For `CC(C)(C)Nc1cc(NC(=O)c2ccccc2)ncn1`, the IC50 was > 11.7 µM (inactive).
In the case of `CC(C)Nc1cc(NC(=O)c2ccccc2)ncn1`, the IC50 is reported as > 11.7 µM (inactive).

Source: PubChem BioAssay AID651859 (Sanford-Burnham Center for Chemical Genomics, 2012)
